Laboratory results as given in BigSolDB 2.1.

N[C@@H](C(=O)N[C@@H]1C(=O)N2C(C(=O)O)=C(Cl)CS[C@H]12)c1ccccc1.O
solubility (mole fraction)
Conditions | 278.15 K | 283.15 K | 288.15 K | 293.15 K | 298.15 K | 303.15 K | 308.15 K | 313.15 K
in acetone | 2.05e-05 | 2.67e-05 | 3.43e-05 | 4.35e-05 | 5.48e-05 | 6.84e-05 | 8.57e-05 | 0.000108
in ethanol | 2.36e-05 | 3.05e-05 | 3.86e-05 | 4.76e-05 | 5.71e-05 | 6.72e-05 | 7.92e-05 | 9.55e-05
in methanol | 8.68e-05 | 0.000101 | 0.000115 | 0.000129 | 0.000145 | 0.000163 | 0.000186 | 0.000214
in water | 0.000387 | 0.000401 | 0.000417 | 0.000445 | 0.000476 | 0.000511 | 0.000551 | 0.000602
